# Values of other authors, collected in patent publication US7914804B2, “Slow release pharmaceutical preparation and method of administering same” (Palmaya Pty Ltd, priority 2001, dated 2011).
SMILES,t1/2 (in the body),effectiveness relative to Naloxone (thought to be),lasting in the body relative to Naloxone (thought to be) [times]
C=CCN1CC[C@]23c4c5ccc(O)c4O[C@H]2C(=O)CC[C@@]3(O)[C@H]1C5 [Naloxone],½,,
O=C1CC[C@@]2(O)[C@H]3Cc4ccc(O)c5c4[C@@]2(CCN3CC2CC2)[C@H]1O5 [Naltrexone],,twice as effective,8
